Data on two molecules can be found in publication PMC9518288, “The mechanism and pharmacodynamics of 2-((1H-indol-3-yl)thio/sulfinyl)-N-pheny acetamide derivative as a novel inhibitor against human respiratory syncytial virus” (Journal of Enzyme Inhibition and Medicinal Chemistry, 2022).

For data set [1], the system named is wtRSV in HEp-2 cells. Kind of data set: Time-of-addition assay (RT-qPCR). The format is cell-based, Human respiratory syncytial virus. As to conditions: wtRSV MOI 5, HEp-2, added at −1 to 14 h, RT-qPCR at 24 h post infection. The method, then: The time-of-addition assay was performed as follows according to our previous work and literature[25]^,[27]. HEp-2 cells were plated in 96 well plates at 1.5 × 10^4 cells per well in 100 µL culture medium and incubated for 24 h (37 °C, 5% CO2). Then, HEp-2 cells were infected with wtRSV at a multiplication of infection (MOI) of 5 for 2 h (37 °C, 5% CO2). The cells were washed with PBS and the media containing drugs and compounds of 4–49 C, 1-HB-63, RSV-604, GS-5806 and Ribavirin at 1 mM, 200 μM, 10 μM, 1 mM and 100 μM, respectively, were added at −1, 0, 2, 4, 6, 8, 10, 12 and 14 h post infection. After the treated cells were further cultured and collected at 24 h post infection, the total RNA was isolated from the HEp-2 cells using TRIzol reagent (Thermo Fisher Scientific, Waltham, MA, USA) and reverse transcribed with GoScript Reverse Transcriptase kit (Promega, Madison, WI, USA). Then, RT-qPCR was performed as described previously.
Figure 2. Investigation on the underlying mechanism 4–49 C and 1-HB-63 inhibiting wtRSV replication. (A) Time-of-addition analyses of 4-49C and 1-HB-63 replication. The HEp-2 cells were infected with wtRSV at a multiplication of infection (MOI) of 5 for 2 h (37 °C, 5% CO2). The cells were washed with PBS and the media containing drug (4-49C, 1-HB-63, RSV-604, GS-5806 and Ribavirin at 1 mM, 200 μM, 10 μM, 1 mM and 100 μM, respectively.) were added at −1, 0, 2, 4, 6, 8, 10, 12 and 14 h separately and incubated till 24 h post infection. Then, the cells were harvested and lysed for RNA extraction and RT-qPCR assay. The results were a representative of three independent experiments, and shown as means ± standard and expressed as % negative control, although in many cases the bars for the standard deviation were obscured by the symbols given the small margin of values. (B) RSV adsorption analyses. […] After 24 h, we cotransfected RSV minigenome plasmid of pBR322B-RSV-Gluc with four auxiliary plasmids into BHK/T7 cells and detected the expression of Gluc in the supernatant. […]

In data set [2] the test system is RSV adsorption to HEp-2 cells. Description: RSV adsorption analyses (RT-qPCR). Format: cell-based, Human respiratory syncytial virus. Particulars: RSV 5 MOI, 1 h at 4 °C. The method, then:
(§1) Figure 2. Investigation on the underlying mechanism 4–49 C and 1-HB-63 inhibiting wtRSV replication. (A) Time-of-addition analyses of 4-49C and 1-HB-63 replication. The HEp-2 cells were infected with wtRSV at a multiplication of infection (MOI) of 5 for 2 h (37 °C, 5% CO2). The cells were washed with PBS and the media containing drug (4-49C, 1-HB-63, RSV-604, GS-5806 and Ribavirin at 1 mM, 200 μM, 10 μM, 1 mM and 100 μM, respectively.) were added at −1, 0, 2, 4, 6, 8, 10, 12 and 14 h separately and incubated till 24 h post infection. Then, the cells were harvested and lysed for RNA extraction and RT-qPCR assay. The results were a representative of three independent experiments, and shown as means ± standard and expressed as % negative control, although in many cases the bars for the standard deviation were obscured by the symbols given the small margin of values. (B) RSV adsorption analyses. After HEp-2 cells seeded into 24 well plates for 24 h, the cold media containing RSV (5 MOI) and compounds of 4–49C, 1-HB-63 and P13 at 1 mM, 200 μM and 100 μM, respectively, was added and incubated for 1 h at 4 °C. Then, the total RNA was isolated and RT-qPCR was performed. (C) RSV minigenome assay. After 24 h, we cotransfected RSV minigenome plasmid of pBR322B-RSV-Gluc with four auxiliary plasmids into BHK/T7 cells and detected the expression of Gluc in the supernatant. […]

Data set [3] concerns RSV minigenome (pBR322B-RSV-Gluc) in BHK-T7 cells. Description: RSV minigenome assay (Gluc expression). As to conditions: BHK-T7, 24 h, vs DMSO. The format is cell-based, Human respiratory syncytial virus. The procedure:
BHK-T7 cells were seeded into 24 well plates at a density of 2 × 10^4 cells/well and incubated for 24 h. Then the RSV minigenome plasmid encoding […] (pBR322B-RSV-Gluc) was mixed with the helper plasmids (pCITE-N, pCITE-P, pCITE-L and pCITE-M2-1) in an Eppendorf tube containing 250 μL Opti-MEM. Meanwhile, the transfection reagent of Lipofectamine 2000 (Invitrogen, CA, USA) was diluted in another tube containing 250 μL Opti-MEM and incubated 5 min at room temperature. Then, the plasmids were mixed with the transfection reagent and incubated at room temperature for 30 min. After that, the BHK-T7 culture media were replaced with the DNA-lipo-optiMEM mixture and incubated for 4 ∼ 6 h (37 °C, 5% CO2). Then the DNA-lipo-optiMEM mixture was replaced with media containing the compounds (4–49 C at 1 mM and 1-HB-63 at 200 μM) and further incubated for 24 h (37 °C, 5% CO2). Finally, after the supernatant of the BHK-T7 cells was transferred into 96 well plate, the Gluc activity was determined by using LUMI star (BMG ABTECH, Ortenberg, Germany) following the manufacturer’s instructions after adding the chromogenic substrate of Gaussia Luciferase Flex Assay Kit (NEB, Ipswich, USA). The results were recorded by photography and/or evaluated with OPTIMA software (BMG LABTECH). The resultant signal strength was quantified as relative light unit (RLU).
as §1

Data set [4] in a line: Pharmacokinetic study in rat. Format: in vivo, Sprague − Dawley (SD) rats. As to conditions: SD rat. The method, then: Six male Sprague − Dawley (SD) rats, randomly divided into two groups of 3 each, were treated with 4–49 C predissolved in 5% DMSO, 5% Solutol and 90% Saline by intravenous injection (iv, 5 mg/kg) and in 5% DMSO and 95% (0.5%MC) by intragastric administration (ig, 10 mg/kg), respectively. Blood samples (100 μL) were collected into K2-EDTA tubes by retro‐orbital bleeding under anaesthesia using isoflurane at 0.033, 0.083, 0.25, 0.5, 1, 2, 4, 7 and 24 h after dosing. And then plasma samples were obtained by centrifuging at 5000 rpm for 10 min at 4 °C and stored at −80 °C until analysis using HPLC–MS/MS.
To investigate the pharmacokinetic parameters in vivo, 4–49 C was selected for the pharmacokinetic experiments in SD rat model. The SD rats were divided into two groups (n = 3) and treated by iv at 5 mg/kg dose and by ig at 10 mg/kg dose, respectively. Plasma samples were collected up to 24 h postdosing and the concentration of 4–49 C was measured by using HPLC-MS/MS.

Setting [5] is: male, Sprague-Dawley, iv, 5 mg/kg, plasma, n = 3, Mean ± SD.

In the case of `O=C(C[S+]([O-])c1c[nH]c2ccccc12)Nc1ccccc1Br` (stereo not shown) [1-HB-63], in data set [1] (compound at 200 μM), the “time points of addition at which virus replication is inhibited” value was “significantly inhibited virus replication when added at the time points of −1, 0, 2 and 4 h”. Moreover, the “inhibition of RSV replication by preventing virus adsorption” value in data set [2] (1-HB-63 at 200 μM) was “neither of 4-49 C and 1-HB-63 inhibited RSV replication by preventing virus adsorption”. Further, the “inhibition of expression of Gluc gene” value in data set [3] (1-HB-63 at 200 μM) is listed as “sharply contrast”.

What is called AUC(0-inf) is the area under the concentration-time curve extrapolated to infinity. A low value points to low exposure. Usually AUC(0-t) stands for the area under the concentration-time curve up to a stated or last time point. The low end stands for less exposure, the high end for more exposure. In general, Cmax refers to the highest concentration seen after dosing. The term half-life denotes the time in which the quantity being followed falls by half. High values mean slow loss, low ones fast loss. Consider `CCOc1ccccc1NC(=O)CSc1c[nH]c2ccc(OC)cc12` [4–49 C], for which the “time points of addition at which virus replication is inhibited” value in data set [1] (compound at 1 mM) was “significantly inhibited virus replication when added at the time points of −1, 0 and 2 h”. In data set [2] (4-49C at 1 mM), the “inhibition of RSV replication by preventing virus adsorption” value was “neither of 4-49 C and 1-HB-63 inhibited RSV replication by preventing virus adsorption”. Further, the “concentration in plasma samples after ig administration” value in data set [4] (ig, 10 mg/kg, up to 24 h, HPLC-MS/MS (data not shown)) is on record as “no 4–49 C detected in plasma samples”. Also, the MRTIV in data set [4] (iv, 5 mg/kg, plasma, n = 3, Mean ± SD) is 7.86 ± 0 min. In data set [4] (setting [5]), this molecule showed an AUC(0-inf) of 70 ± 17 ng·h/mL, an area under the curve AUC(0-t) of 69.3 ± 17 ng·h/mL, a peak concentration (Cmax) of 454 ± 111 ng/mL and a half-life of 10 ± 18 min. Further, the k el in data set [4] (setting [5]) was 0.00119 s⁻¹. In addition, in data set [3] (4–49 C at 1 mM), the “inhibition of expression of Gluc gene” value is given as “could not be inhibited”.
